The test system of assay [1] is Plasmodium knowlesi. As to the kind of experiment: Antimalarial activity against Plasmodium knowlesi infected Chinese rhesus macaques assessed as parasitemia level in blood smears at 40 mg/kg, intragastric treated 5 days before infection measured between day 0 to 7 by Giemsa-staining in presence of ritonavir 10 mg/kg, intragastric once daily. Format: functional, organism-based.

The test system of assay [2] is Plasmodium knowlesi. As to the kind of experiment: Antimalarial activity against Plasmodium knowlesi infected Chinese rhesus macaques assessed as parasitemia level in blood smears at 40 mg/kg, intragastric treated 5 days before infection measured between day 0 to 7 by Giemsa-staining in presence of ritonavir 5 mg/kg, intragastric twice daily. The class given is functional, organism-based.

Active and inactive are the calls of the source. The calls are words filed in the database; no cut-off is given here.

`Cc1cccc(C)c1OCC(=O)N[C@@H](Cc1ccccc1)[C@@H](O)C[C@H](Cc1ccccc1)NC(=O)[C@H](C(C)C)N1CCCNC1=O`: the inhibition result in assay [1] is “inactive”.

As for `CC(C)(C)NC(=O)[C@@H]1CN(Cc2cccnc2)CCN1C[C@@H](O)C[C@@H](Cc1ccccc1)C(=O)N[C@H]1c2ccccc2C[C@H]1O`, in assay [2], the inhibition result was “Active”.

(Values after ChEMBL document CHEMBL3399988, “Ritonavir-boosted indinavir but not lopinavir inhibits erythrocytic stage Plasmodium knowlesi malaria in rhesus macaques” (Bioorg Med Chem Lett, 2015).)
